Row | melting point [°C] | SMILES
1 | 131 to 132 | Cc1c([N+](=O)[O-])cc2c(c1C)OC(C)(C)C2=O
2 | 191 to 193 | CCC(OC(=O)CO)c1ccc(Cl)c2nc3n(c12)CCCN3c1ccc(Cl)cc1Cl (stereo not given)
3 | 266 to 269 | Nc1nc2c(ncn2C2CC(CO)C(O)C2F)c(=O)[nH]1 (stereo not given)
4 | 112 to 113 | CC#CC(C)(C)NC(=O)C(CC)Oc1cncc(C#N)c1 (stereo not given)
5 | 118 to 120 | Nc1nc2ccccc2c2c1nc(-c1ccccc1)n2CCCCNC(=S)Nc1cccnc1
6 | 82 to 83 | CCn1c(COC(=O)NC(=O)c2ccc(Cl)cc2)nc(C(C)C)c1Sc1cc(Cl)cc(Cl)c1
7 | 121 to 122 | Nc1cc(C(F)(F)F)ccc1N(N)C=O
8 | 255 to 257 | Cc1cc(C(F)(F)F)nc2nc(N)ccc12
9 | 215 to 217 | CC(=NO)c1ccnc(N)c1
10 | 94 to 96 | Nc1ccc2c(c1)C(=O)N(CCO)CO2
11 | 168 to 170 | C#Cc1ccc(CO[C@@H]2COc3nc([N+](=O)[O-])cn3C2)cn1
12 | 150 | Cc1cc2c(cc1Cl)nc(Br)n2[C@@H]1OC[C@@H](O)[C@@H](O)[C@H]1O
13 | 265 to 266 | COC(=O)CN1CCc2[nH]c(=O)n3nc(-c4ccccc4F)nc3c2C1
14 | 116 to 117 | Cc1coc2c1C(=O)CC(c1cccc(Cl)c1Cl)C2 (stereo not given)
15 | 227 to 230 | CCn1cc(Br)nc(N)c1=O
16 | 131 to 132 | CC(=O)Nc1nc(CCc2ccc(CN3CCC(NC(=O)OC(C)(C)C)C3)cc2)cs1 (stereo not given)
17 | 88 to 89 | CCCc1c(OCCCOc2ccc(C#N)cc2Br)ccc(C(C)=O)c1O
18 | 176 to 178 | CCOC(=O)C1=C(C)NC(=O)N(C(=O)OCC)C1c1cccc([N+](=O)[O-])c1Cl (stereo not given)
19 | 111 to 113 | C=C(OCC)c1c(C)nc(C)nc1NCc1ccc(Br)cc1

Row | melting point [°C] | SMILES
20 | 123 to 127 | CCC1CC2C3CCC4=C(CCC(=O)C4)C3=CCC2(CC)C1OC(C)=O (stereo not given)
21 | 210 to 211 | Cc1cc(CCC2(C)NC(=O)NC2=O)cc(C(C)(C)C)c1O (stereo not given)
22 | 130 to 131 | CCOC(=O)/C=C/c1nc(COc2ccc(COc3nn(-c4ccccc4)cc3/C=C/P(=O)(OCC)OCC)cc2OC)c(C)o1
23 | 95 to 96 | CCOC(=O)C=Cc1cc([N+](=O)[O-])cc2c1CCCC2
24 | 205 to 206 | Cc1nc2sc3c(NCCCN4CCCC4=O)ncnc3c2c2c1CCC(C)(C)C2
25 | 160 | NC(=O)NCCNc1ccc(N)cc1Cl
26 | 138 to 139 | C=C(C)Cn1c(=O)n(C)c(=O)c2c(SCCCO)n(Cc3cccc4ccccc34)nc21
27 | 59 to 62 | CC(C)(O)CCOc1c(-c2ccc(S(N)(=O)=O)cc2)cnn(-c2ccc(F)c(Cl)c2)c1=O
28 | 75 to 76 | CCN(c1nc(C)cc(C(=O)c2ncc[nH]2)n1)c1ccc(C(C)C)cc1Br
29 | 145 to 148 | Cc1ccc(Br)cc1NC(=O)NCCCNCCCCl
30 | 214 to 216 | O=C1CNc2cc(Br)c(F)cc2N1
31 | 106 to 107 | COc1cc(C)c(Cl)cc1C(=O)Cl
32 | 151 to 155 | CCOC(=O)C(NC(=O)NN1CC(=O)NC1=O)c1cccs1 (stereo not given)
33 | 133 to 135 | CCc1ccc(Nc2nnc(Cc3ccnc(O)c3)c3ccccc23)cc1Br
34 | 180 to 181 | CSc1cc(NCc2nc3ccccc3o2)c(=O)[nH]c1C
35 | 153 to 154 | COC(CC(=O)c1ccc(Br)cc1)C(=O)c1ccc(Br)cc1 (stereo not given)
36 | 203 to 204 | CCOC(=O)CNc1ccc2c3c(n(CCCNC(=O)OC(C)(C)C)c(=O)c2c1)-c1ccccc1C3=O
37 | 180 | CCC1Sc2cc(-c3cccc([N+](=O)[O-])c3)ccc2NC1=O (stereo not given)
38 | 138 to 140 | COc1cccc2c1CCC1C(=O)OC(=O)C21 (stereo not given)

The remaining lines, values behind:

Row | SMILES | melting point [°C]
39 | Nc1ccc(Sc2ccccc2)cc1Cl | 59 to 60
40 | CC(=NC#N)N[C@@H]1c2cc(C#N)ccc2OC(C)(C)[C@H]1OS(C)(=O)=O (relative stereo) | 202 to 204
41 | O=S1(=O)CCC(c2ccc(N3CCN(CC(O)(Cn4cncn4)c4ccc(Cl)cc4Cl)CC3)cc2)CN1 (stereo not given) | 68 to 70
42 | COc1cc(CCl)c(CCNC(=O)C(F)(F)F)cc1OC | 140
43 | Clc1ccc(C=NN=c2ccn(-c3ccc(Cl)cc3)cc2)cc1 | 165 to 166
44 | CCCC1(C)OC(=O)C(c2ccc(F)c(F)c2)=C1c1ccc(S(C)(=O)=O)cc1 (stereo not given) | 89 to 90
45 | CC(C)Oc1ccc(CCCO)c(Oc2ncc(C(F)(F)F)cc2Cl)c1 | 72 to 73
46 | CC(C)(C)c1cc(CCc2ccccc2NC(=O)NC2CCCCCCC2)cc(C(C)(C)C)c1O | 174 to 176
47 | CCCCCCOCCCCCCCCCCCSCCCO | 27 to 29
48 | CC(CN(C)C)CN1c2ccccc2OCOc2ccc(Cl)cc21 (single isomer, unassigned; (-)) | 92 to 95
49 | COC(=O)C(C)Oc1ccc(NC(=O)OCCO)cc1 (stereo not given) | 90.5 to 92.8
50 | COCN1C(C)=C(C(=O)OCc2ccccc2)C(c2ccccc2C(F)(F)F)C(C(=O)OCc2ccccc2)=C1C | 94 to 95
51 | CC(=Cc1ccc(C(=O)O)cc1)c1ccc2c(c1)SCCC2(C)C | 255 to 257
52 | NC(=O)c1cc2cccc(N(CC3CC3)S(=O)(=O)c3cccs3)c2[nH]1 | 229 to 231
53 | COc1cc(Cn2ccc3ncnc-3c2)ccc1C(=O)N(C1CCCC1)C1CC(C)CC(C)C1 (stereo not given) | 218 to 220
54 | O=C1N(Cc2ccccn2)c2ccccc2C12COc1cc3c(c(-c4ccoc4)c12)CCO3 (stereo not given) | 195 to 197
55 | COc1cc2cc(C(=O)O)c(C(=O)O)nc2cc1OC | 264 to 266
56 | C=C1CN(Cc2ccc(C(=O)Nc3ccccc3N)cc2)C(CC(=O)O)c2ccccc21 (stereo not given) | > 230
57 | CCOCC1=C(C(=O)OCC)C(c2ccccc2Cl)C(C(=O)OCC)=C(C)N1 (stereo not given) | 115
58 | O=C1c2cccc3cccc(c23)C(=O)N1CCN1CCN(CCO)CC1 | 165 to 166
59 | CN(CCC#N)CCc1coc(-c2cc(C(C)(C)C)c(O)c(C(C)(C)C)c2)n1 | 104 to 105

Row | SMILES | melting point [°C]
60 | O=C1c2ccccc2C(=O)N1CC1CC1c1cccc2nscc12 (stereo not given) | 148 to 151
61 | O=[N+]([O-])c1ccc(NCCF)nc1 | 126 to 127
62 | CC(=O)Nc1cccc(-c2ccnc3c(Cc4ccccc4)cnn23)c1 | 205 to 207
63 | O=C(O)Cc1ccccc1Oc1ccc(C(F)(F)F)cc1[N+](=O)[O-] | 165 to 167
64 | CS(=O)(=O)c1ccc(-c2cc(C(F)F)nn2-c2cccc(C(F)(F)F)c2)cc1F | 110 to 111
65 | CC(C)CC(NC(=O)Cc1ccc2ccccc2c1)C(=O)NC(Cc1ccccc1)C(=O)CSCc1ccco1 (stereo not given) | 123 to 125
66 | COc1ccc(OC)c2c(Cl)c(C#N)cnc12 | 165 to 167
67 | OCCOCCn1c(NC2CCNCC2)nc2ccccc21 | 164
68 | CC(CO)c1ccc2cc(OCc3ccc4ccccc4n3)ccc2c1 (stereo not given) | 129 to 131
69 | CC(=NO)c1ccccc1NC(C(N)=O)c1c(Cl)cccc1Cl (stereo not given) | 115
70 | COc1ccc(-c2ccc(-c3nc(N)nc(N)n3)cc2)cc1 | > 260
71 | CCCC[C@H](NC(=O)CC[C@H](C)CNC(=O)COc1ccccc1)C(=O)CS(=O)(=O)Cc1ccco1 | 120 to 121
72 | O=C1CCC(N2Cc3c(OCc4ccc(CN5CCCC5C(F)(F)F)cc4)cccc3C2=O)C(=O)N1 (stereo not given) | 178 to 180
73 | CCCCN(CCCC)S(=O)(=O)c1cc(C(=O)CCl)ccc1Cl | 71
74 | CCCCCCNC(=O)C1=C(C(=O)Nc2cc(OC3CCCC3)c(Cl)cc2F)CCCC1 | 128 to 130
75 | O=Cc1cc2c(cc1O)OCCO2 | 114 to 115
76 | N[C@H]1C=C(C(=O)O)OC1 | 193 to 195
77 | c1ccc(CN2C(=NCCCn3ccnc3)c3cccc4cccc2c34)cc1 | 90 to 93
78 | Nc1nc2c(c(Nc3ccccc3)n1)-c1ccccc1C2 | 215 to 217
79 | CN1CCC(c2c[nH]c3ccc(CCS(=O)(=O)N(C)C)cc23)CC1 | 170 to 172
80 | CC(C)(C)OC(=O)c1ccc2c(c1)NCc1ccccc1O2 | 121 to 123

Row | SMILES | melting point [°C]
81 | N#Cc1ccc(C=O)c(-c2cccs2)c1 | 114
82 | O=C(c1cccc([N+](=O)[O-])c1)n1nc(O)c2ccccc21 | 232 to 234
83 | CCON=C(CC)C1=C(OC(=O)c2ccccc2)CC(c2c(C)cc(C)cc2C)CC1=O (stereo not given) | 94 to 95.5
84 | CC(OS(C)(=O)=O)C(C)n1ncn(-c2ccc(N3CCN(c4ccc(OCC5COC(Cn6cncn6)(c6ccc(F)cc6F)O5)cc4)CC3)cc2)c1=O (stereo not given) | 172
85 | CC(C)(C)OC(=O)N1CCN(c2cccc(Cl)c2C=O)CC1 | 100 to 103
86 | O=C(NC1=NN(c2ccc(C(=O)C(F)(F)F)cc2)CC1)C(F)(F)F | 228 to 230
87 | C=CC(=O)OCCOc1ccc(Cl)c2c1Sc1ccccc1C2 | 90 to 91
88 | O=C(O)c1ccccc1Nc1ccnn1Cc1ccccc1 | 190
89 | N#Cc1nn(-c2c(Cl)cc(C(F)(F)F)cc2Cl)c(N)c1-c1ccsc1C(F)(F)F | 162
90 | S=C(NCCc1ccccc1Cl)Nc1ccccn1 | 116 to 122
91 | O=C(O)CCCCCN1CCCCC1 | 74 to 76
92 | C[Si](C)(C)c1cccc(C[C@@H]2N[C@@H](c3ccccc3)[C@@H](c3ccccc3)OC2=O)c1 | 94 to 95
93 | O=C(NC12CC3CC(CC1C3)C2)c1ccccc1C(c1ccc(O)cc1)c1ccc(O)cc1 | 219 to 224
94 | CC(=O)Oc1ccc(OCc2ccccc2)cc1CC(Br)CBr (racemic) | 72 to 74
95 | CC(C)NC(=O)c1nc(-c2ccccc2)c(-c2ccc(=O)[nH]n2)s1 | > 250
96 | CC(C)(C)c1cc(SCCO)cc(C(C)(C)C)c1O | 66
97 | CC(C)Nc1nc(N2CCOCC2)nc2cscc12 | 202
98 | CC(C)(c1ccc([N+](=O)[O-])cc1)c1ccc([N+](=O)[O-])cc1 | 135 to 137
99 | COCn1nc(Nc2cnccn2)c2cc(-c3ncccc3Cl)cc(OCCc3ccccn3)c21 | 120 to 122
100 | O=Cc1c[nH]c2cccc(OCC3CO3)c12 (stereo not given) | 108 to 110
